Experiments:
[1] = tested on: SCD mutation (β-globin gene), CD117+ HSPCs; experiment: SCD gene correction by ddPCR of gDNA, CD117+ HSPCs; format: cell-based, mouse
Description: Bulk bone marrow cells were treated with PLGA NPs encapsulating tcPNA 1A, 2A, 3A and correcting donor DNA molecules. 72 hours after treatment, HSPCs were isolated by CD117+ selection. gDNA was harvested from these cells and assayed for gene correction via ddPCR.
(§1) Bulk bone marrow cells were treated with PLGA NPs encapsulating unmodified PNA (tcPNA 2). 72 hours after treatment HSPCs, were isolated from bulk cells via negative and positive selection, and gene editing all three populations was compared.

[2] = tested on: SCD mutation (β-globin gene), bulk mouse bone marrow cells; experiment: SCD gene correction by ddPCR of gDNA, bulk bone marrow cells treated ex vivo; format: cell-based; conditions: for effect of DNA repair modulator on editing vs NP only: PLA-HPG nanoparticles encapsulating tcPNA 2 or sertcPNA 2; for effect of added factor on gene editing frequencies by ddPCR: bulk bone marrow and HSPCs (lin−) treated with tcPNA 2 nanoparticles, particularly in HSPCs
Description: Bulk mouse bone marrow cells were treated with PLGA NPs encapsulating tcPNA 1A, 2A, 3A and correcting donor DNA molecules.
Bulk bone marrow cells were treated with PLGA NPs encapsulating modified (tc PNA 2A) and unmodified versions (tc PNA 2) of PNA sequence. 72 hours after treatment, gDNA was isolated and analyzed for editing frequencies by ddPCR.
as §1
(§2) Bulk bone marrow and HSPCs (lin^−) were treated with tcPNA 2 nanoparticles and combinations of stem cell factor, erythropoietin, and plerixafor. 72 hours after treatment, gDNA was isolated and analyzed for editing frequencies by ddPCR.
Bulk bone marrow cells were treated with tcPNA 2 encapsulated into poly(lactic-co-glycolic acid) (PLGA), or poly(lactic acid)PLA-HPG.
Nanoparticles made from poly(lactic acid) (PLA) conjugated to hyperbranched polyglycerols (HPG), referred to as PLA-HPG, were synthesized using a double emulsion solvent evaporation protocol. Briefly, 50 mg of PLA-HPG was dissolved in 2.4 mL of ethyl acetate and 0.6 mL of DMSO. PNA and donor DNA were heated to 60° C. for 10 minutes, mixed, and immediately added dropwise to the polymer solution under vortex. This 1st emulsion (water-in-oil) was sonicated 3 times at 38% amplitude for 10 seconds using a probe sonicator. Following sonication, the primary emulsion was added dropwise to 4 mL of diH2O, forming the second emulsion (water-in-oil-in-water), which was subsequently sonicated as above. Nanoparticles were further diluted in 20 mL of diH2O. Residual organic solvent was removed using a rotovap. After solvent removal, nanoparticles were collected via centrifugation in Amicon 100K filter tubes. Following a second washing step, nanoparticles were resuspended in diH2O, frozen, and stored as 100 μl aliquots containing 2 mg of nanoparticles. Where indicated, low molecular weight PLA-HPG (P7H9-2) or high molecular weight PLA-HPG (P7H3-18) was used.
Bulk bone marrow cells were treated with PLGA or PLA-HPG nanoparticles encapsulating unmodified (tcPNA 2) and serine modified (^sertcPNA 2) along with correcting donor DNA molecules.
Experiments were designed to test the effects of DNA repair inhibition on gene editing. Bulk bone marrow cells were treated with PLA-HPG nanoparticles encapsulating tcPNA 2 or ^sertcPNA 2, with or without the addition of small molecule modulators of DNA repair: RS-1, RI-1, RI-2, B0-2, or SCR-7.

[3] = tested on: double-stranded DNA target (200 bp); experiment: PNA incubation with double-stranded DNA target, triplex band; format: binding; conditions: unmodified tcPNA 2 vs modified tcPNA 2A; both temperature conditions
Description: Modified (tcPNA 2A) and unmodified (tcPNA 2) PNAs were incubated with a double-stranded DNA target (200 bp) at indicated temperatures.

Berk hemizygous mice = experiment: In vivo gene editing in Berk hemizygous mice treated with nanoparticles; parameters: species or system mouse; conditions: nanoparticles encapsulating tcPNA 2 and donor DNA, intravenous
Description: Experiments were designed to test the ability of tcPNA 2 to drive gene editing in vivo.
Berk hemizygous mice treated with nanoparticles encapsulating unmodified SCD-tcPNA 2: H-KKK-TTJJTJT-OOO-[…]-KKK-NH2 (SEQ ID NO:5) K indicates lysine; J, pseudoisocytosine (for C) for pH-independent triplex formation. O, 8-amino-2,6,10-trioxaoctanoic acid linkers connecting the Hoogsteen and Watson-Crick domains of the tcPNAs, serine modified bases (bold and underlined) along the Watson-Crick domain and donor DNA: […]

[4] = tested on: SCD mutation (β-globin gene), HSPCs (lin−); experiment: SCD gene correction by ddPCR of gDNA, HSPCs (lin−) isolated via negative selection; format: cell-based, mouse; conditions: PLGA NPs encapsulating tcPNA 2; 72 hours; comparison of three cell populations
Description: as §1, §2

[5] = tested on: Primary mouse bone marrow cells; experiment: Cytokine expression in primary mouse bone marrow cells after NP treatment; format: cell-based; conditions: PLGA NPs encapsulating tcPNA 1A and correcting donor DNA; 48 hours after treatment
Description: The toxicity and safety of PNA/donor DNA delivery using nanoparticles were investigated. Primary mouse bone marrow cells were treated with PLGA nanoparticles (NPs) encapsulating tcPNA 1A and correcting donor DNA. 48 hours after treatment cells were spun, media collected, and assayed for cytokine expression.

[6] = bulk bone marrow cells, 1 uM dose
[7] = bulk bone marrow cells, 10 uM dose
[8] = PLGA NPs encapsulating tcPNA 2, 72 hours, comparison of three cell populations

## tcPNA 2A: SEQ ID NO:5 tail-clamp PNA with alternating mini-PEG modified bases along the Watson-Crick domain (TTNNTNTTCTCCTTAAACCTGTCTT; alternating gamma mini-PEG modified PNA units, chemistry not fully specified)
[1]; CD117+ HSPCs isolated 72 hours after treatment, PLGA NPs encapsulating tcPNA 1A, 2A, 3A and donor DNA, compared with each other
  level of gene editing as measured by ddPCR (SCD gene correction): highest level of gene editing
[2]; bulk mouse bone marrow cells, PLGA NPs encapsulating tcPNA 1A, 2A, 3A and donor DNA, compared with each other
  level of gene editing as measured by ddPCR (SCD gene correction): highest level of gene editing

## O=c1c2ccccc2nc(/C=C/c2cccnc2)n1Cc1ccccc1 [B0-2]
[2]; bulk bone marrow cells, PLA-HPG nanoparticles encapsulating tcPNA 2 or sertcPNA 2, with or without modulator of DNA repair
  gene editing frequencies: ~12%

## O=c1[nH]c(=S)[nH]c(N=Cc2ccccc2)c1N=Cc1ccccc1 [SCR-7]
[2]; [6]
  effect of DNA repair modulator on editing vs NP only: decreased PNA-mediated gene editing
[2]; [7]
  effect of DNA repair modulator on editing vs NP only: decreased PNA-mediated gene editing

## ^sertcPNA 2: tc PNA 2 sequence (SEQ ID NO:5) modified with a hydroxymethyl (serine) group at the γ position along the Watson-Crick domain (TTNNTNTTCTCCTTAAACCTGTCTT; gamma-serine (hydroxymethyl) modified PNA backbone, chemistry not fully specified)
[2]; bulk bone marrow cells, PLGA or PLA-HPG nanoparticles with donor DNA, even at lower NP doses
  gene editing relative to unmodified tcPNA 2: increased gene editing appreciably

## O=C(Nc1ccc(Br)cc1)c1ccc(Br)c(S(=O)(=O)NCc2ccccc2)c1 [RS-1]
[2]; [6]
  effect of DNA repair modulator on editing vs NP only: reduced editing frequencies
[2]; [7]
  effect of DNA repair modulator on editing vs NP only: higher levels of editing

## SCF: stem cell factor, C-kit ligand
[2]; 72 hours
  effect of added factor on gene editing frequencies by ddPCR: increased gene editing frequencies

## O=C1C(Cl)=C(N2CCOCC2)C(=O)N1c1ccc(Cl)c(Cl)c1 [RI-1]
[2]; [6]
  effect of DNA repair modulator on editing vs NP only: higher levels of editing
[2]; [7]
  effect of DNA repair modulator on editing vs NP only: reduced levels

## lys-lys-lys-TTJJTJT-OOO-TCTCCTTAAACCTGTCTT-lys-lys-lys (SEQ ID NO:5) (TTNNTNTTCTCCTTAAACCTGTCTT; PNA, lysine ends, OOO linker, chemistry not fully specified) [tcPNA 2, tail-clamp PNA oligomer targeting the β-globin gene]
[1]; [8]
  gene editing by ddPCR, CD117+ population: appreciable editing
[2]; [8]
  gene editing by ddPCR, bulk population: appreciable editing
[2]; bulk bone marrow cells, PLGA NPs, unmodified tcPNA 2 vs mini-PEG modified tcPNA 2A, 72 hours
  level of editing (correction of the SCD mutation) by ddPCR: highest level of editing
[3]
  invasion of duplex DNA (triplex band): superior invasion of duplex DNA
Berk hemizygous mice
  gene editing in vivo: can Drive Gene Editing In Vivo
[4]
  gene editing by ddPCR, HSPCs isolated via negative selection: highest levels of editing

## tcPNA 1A: SEQ ID NO:14 tail-clamp PNA with alternating mini-PEG modified bases along the Watson-Crick domain (NNTNTTNCTTCTCCACAGGAGTCAG; alternating gamma mini-PEG modified PNA units, chemistry not fully specified)
[5]
  inflammatory cytokine expression: did not produce inflammatory cytokine expression

## c1cc(CN2CCCNCCNCCCNCC2)ccc1CN1CCCNCCNCCCNCC1 [Plerixafor, plerixafor]
[2]; 72 hours
  effect of added factor on gene editing frequencies by ddPCR: increased gene editing frequencies
